In publication PMC10786919, “Design-rules for stapled peptides with in vivo activity and their application to Mdm2/X antagonists” (Nature Communications, 2024):
Converted amounts (≈) assume the structure as drawn. Like-named read-outs stand apart in the source and are kept apart here. Positions of bridges follow the written chain, without caps; N, C: chain ends. Non-standard residues stand in square brackets, D forms with d. Residues, ends and D or L forms follow the SMILES beside them. Lys(N3) = [N-]=[N+]=NCCCC[C@H](N)C(=O)O; R8 = C=CCCCCCC[C@@](C)(N)C(=O)O; Cba = N[C@@H](CC1CCC1)C(=O)O; S5 = C=CCCC[C@](C)(N)C(=O)O; βAla = NCCC(=O)O

Assays:
[1] = physchem
[2] = Experimental LogD (partition coefficient); conditions: for logD: not stated, Partition Coeff LogD
[3] = Lactate dehydrogenase (LDH) release assay; format: cell-based
In short: (§1)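 HCT116 cells stably carrying a p53-responsive β-lactamase reporter, seeded at 8000 cells/well, exposed to compound with 0.5% final DMSO. LDH release read with the CytoTox-ONE membrane integrity kit. Values are geometric means of at least three biological replicates.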

[4] = test system: HCT116 cells; assay: Lactate dehydrogenase (LDH) release assay; format: cell-based
In short: as §1

[5] = Solubility assay (kinetic solubility, PBS pH 7); format: physicochemical; conditions: for solubility kinetic: pH 7, aqueous buffer, kinetic from dmso stock, read-out: Solubility
In short: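 Reference standards were made by diluting the 10 mM stock to 100 µM in acetonitrile:methanol:DMSO 10:80:10. Solubility in µM was calculated as the sample peak area divided by the standard peak area, multiplied by the standard concentration.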

[6] = Nanoclick permeability assay
In short: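 Azido-peptide permeability was read as loss of NanoBRET signal (donor 450 nm, acceptor 610 nm) after adding NanoBret618-azide at 10 μM final.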

[7] = 0% FBS 4Hr, read-out: LDH: Cytotoxicity assay EC50

SMILES	EPSA [1]	logD [2]	EC50 [3, 7]	LDH: Cytotoxicity assay % Effect ([4]; 0% FBS 4Hr)	LDH: Cytotoxicity assay % Effect ([4]; 0% FBS 16Hr)	solubility kinetic ([5]; pH 7, PBS)	cell entry EC50 [6]	EC50 ([3]; 4 hours, 0% serum, read-out: LDH Cytotoxicity assay EC50)	Partition Coeff LogD [2]	Partition Coeff LogD ([2]; experimental)	Solubility [5]	Solubility ([5]; pH 7, PBS)
CC(=O)N[C@@H](CCCCN=[N+]=[N-])C(=O)NCCC(=O)N[C@@H](C)C(=O)N[C@H](C(=O)N[C@@H](Cc1ccccc1)C(=O)N[C@]1(C)CCCCCCC=CCCC[C@@](C)(C(=O)N[C@@H](CO)C(=O)N[C@@H](C)C(=O)N[C@@H](C)C(N)=O)NC(=O)[C@H](CC2CCC2)NC(=O)[C@H](CCC(N)=O)NC(=O)[C@H](C)NC(=O)[C@H](Cc2c[nH]c3ccccc23)NC(=O)[C@H](Cc2ccc(O)cc2)NC(=O)[C@H](C)NC1=O)[C@@H](C)O [MP-958, AZIDE-ATSP-7041 (L1A,E5A)] (Ac-[Lys(N3)][βAla]ATF[R8]AYWAQ[Cba][S5]SAA-NH2; staple 6-13)	207 A^2	3.13	> 50000 nM	13.33%	4.88%	5 µM (≈ 9.35 µg/mL)	333 nM					
CC(=O)N[C@@H](CCCCN=[N+]=[N-])C(=O)NCCC(=O)N[C@@H](C)C(=O)N[C@H](C(=O)N[C@@H](Cc1ccccc1)C(=O)N[C@]1(C)CCCCCCC=CCCC[C@@](C)(C(=O)N[C@@H](CO)C(=O)N[C@@H](C)C(=O)N[C@@H](C)C(N)=O)NC(=O)[C@H](CC2CCC2)NC(=O)[C@H](C)NC(=O)[C@H](C)NC(=O)[C@H](Cc2c[nH]c3ccccc23)NC(=O)[C@H](Cc2ccc(O)cc2)NC(=O)[C@H](CCC(=O)O)NC1=O)[C@@H](C)O [MP-959, AZIDE-ATSP-7041 (L1A,Q9A)] (Ac-[Lys(N3)][βAla]ATF[R8]EYWAA[Cba][S5]SAA-NH2; staple 6-13)	218 A^2	2.79	976 nM	12.11%	5.8%	106 µM (≈ 197 µg/mL)	126 nM	980 nM				
CC(=O)N[C@@H](CCCCN=[N+]=[N-])C(=O)NCCC(=O)N[C@@H](C)C(=O)N[C@H](C(=O)N[C@@H](Cc1ccccc1)C(=O)N[C@]1(C)CCCCCCC=CCCC[C@@](C)(C(=O)N[C@@H](C)C(=O)N[C@@H](C)C(=O)N[C@@H](C)C(N)=O)NC(=O)[C@H](CC2CCC2)NC(=O)[C@H](CCC(N)=O)NC(=O)[C@H](C)NC(=O)[C@H](Cc2c[nH]c3ccccc23)NC(=O)[C@H](Cc2ccc(O)cc2)NC(=O)[C@H](CCC(=O)O)NC1=O)[C@@H](C)O [MP-960, AZIDE-ATSP-7041 (L1A,S12A)] (Ac-[Lys(N3)][βAla]ATF[R8]EYWAQ[Cba][S5]AAA-NH2; staple 6-13)	221 A^2	2.76	> 50000 nM	17.36%		102 µM (≈ 194 µg/mL)	286 nM					
CC(=O)N[C@@H](CCCCN=[N+]=[N-])C(=O)NCCC(=O)N[C@@H](CC(C)C)C(=O)N[C@@H](C)C(=O)N[C@@H](Cc1ccccc1)C(=O)N[C@]1(C)CCCCCCC=CCCC[C@@](C)(C(=O)N[C@@H](CO)C(=O)N[C@@H](C)C(=O)N[C@@H](C)C(N)=O)NC(=O)[C@H](CC2CCC2)NC(=O)[C@H](CCC(N)=O)NC(=O)[C@H](C)NC(=O)[C@H](Cc2c[nH]c3ccccc23)NC(=O)[C@H](Cc2ccc(O)cc2)NC(=O)[C@H](C)NC1=O [MP-961, AZIDE-ATSP-7041 (T2A,E5A)] (Ac-[Lys(N3)][βAla]LAF[R8]AYWAQ[Cba][S5]SAA-NH2; staple 6-13)	206 A^2		> 50000 nM	4.443%			272 nM		Poorly Behaved	P.B.	P.B.	Poorly Behaved
CC(=O)N[C@@H](CCCCN=[N+]=[N-])C(=O)NCCC(=O)N[C@@H](CC(C)C)C(=O)N[C@@H](C)C(=O)N[C@@H](Cc1ccccc1)C(=O)N[C@]1(C)CCCCCCC=CCCC[C@@](C)(C(=O)N[C@@H](CO)C(=O)N[C@@H](C)C(=O)N[C@@H](C)C(N)=O)NC(=O)[C@H](CC2CCC2)NC(=O)[C@H](C)NC(=O)[C@H](C)NC(=O)[C@H](Cc2c[nH]c3ccccc23)NC(=O)[C@H](Cc2ccc(O)cc2)NC(=O)[C@H](CCC(=O)O)NC1=O [MP-962, AZIDE-ATSP-7041 (T2A,Q9A)] (Ac-[Lys(N3)][βAla]LAF[R8]EYWAA[Cba][S5]SAA-NH2; staple 6-13)	216 A^2	2.96	> 50000 nM	4.327%		77.5 µM (≈ 146 µg/mL)	77.6 nM					
CC(=O)N[C@@H](CCCCN=[N+]=[N-])C(=O)NCCC(=O)N[C@@H](CC(C)C)C(=O)N[C@@H](C)C(=O)N[C@@H](Cc1ccccc1)C(=O)N[C@]1(C)CCCCCCC=CCCC[C@@](C)(C(=O)N[C@@H](C)C(=O)N[C@@H](C)C(=O)N[C@@H](C)C(N)=O)NC(=O)[C@H](CC2CCC2)NC(=O)[C@H](CCC(N)=O)NC(=O)[C@H](C)NC(=O)[C@H](Cc2c[nH]c3ccccc23)NC(=O)[C@H](Cc2ccc(O)cc2)NC(=O)[C@H](CCC(=O)O)NC1=O [MP-963, AZIDE-ATSP-7041 (T2A,S12A)] (Ac-[Lys(N3)][βAla]LAF[R8]EYWAQ[Cba][S5]AAA-NH2; staple 6-13)	220 A^2	2.97	> 50000 nM	11.69%	-0.52%	100 µM (≈ 192 µg/mL)	177 nM					
